# Literature values, collected in US20050096371A1, “Topical pharmaceutical compositions” (priority 2003, published 2005).
# What was measured:
# human subjects = conditions: repeated insult patch test, 50 human subjects, total of 15 applications; manufacturer's brochure
# humans = conditions: Marzulli and Maibach's method
SMILES,PII (rabbit skin),irritation to rabbit skin (rabbit skin),primary dermal irritation / sensitization (human subjects),cutaneous irritation (rabbits),cutaneous irritation / sensitization (humans)
"CN1CCCC1=O [Pharmasolve®, N-methyl-2-pyrrolidone]",0.5,practically nonirritating,neither a primary dermal irritant nor a sensitizer,,
"CCOCCOCCO [Transcutol®, diethylene glycol monoethyl ether]",,,,nonirritating,nonirritating and non-sensitizing
